# Assay results from publication PMC2603313, “Direct Inhibition of GSK3β by the Phosphorylated Cytoplasmic Domain of LRP6 in Wnt/β-Catenin Signaling” (PLoS ONE, 2008).
# Entries after “also recorded” stand apart in the source; their conditions may differ. Ends that are not written are not given here.
# B1: Axin fragment: His-tagged Axin fragment (residues 512–650) including the GBD and the β-catenin binding domain (protein, UniProt O35625 512-650, looked up, fragment)
# chain: GKHVPKLGLKLDTAGLHHHRHVHHHVHHNSARPKEQMEAEVARRVQSSFSWGPETHGHAKPRSYSENAGTTLSAGDLAFGGKTSAPSKRNTKKAESGKNANAEVPSTTEDAEKNQKIMQWIIEGEKEISRHRKAGHGSS
# modifications: His tag
# Assays:
# GSK3β [1] = assay: Western blot of GSK3β phosphorylated at Ser9 in transfected A549 cells; assay type: cell-based; conditions: GFP fusion
# From the text: (§1) Figure 1 LRP6 constructs and their cytoplasmic overexpression in cell. (A) Schematic representation of the full-length LRP6 and amino acid sequences of LRP6 intracellular fragments used in this study. The Ser/Thr rich cluster and PPPSPxS motif are underlined in each sequence. Phosphorylated residues are highlighted. (B) Cytosolic overexpression of the LRP6 constructs. A549 cells in which control (empty vector, EV, encoding only GFP), miniCL and miniCLMT were transfected as GFP fusion proteins. Control, miniCL and miniCLMT were detected through the green fluorescence from GFP. β-Catenin was detected using an anti-β-catenin antibody, and the nuclei were detected by DAPI staining. […] Endogenous β-catenin was detected by an anti-β-catenin antibody. p-GS indicates the level of the phosphorylated GS by GSK3β, detected by anti-glycogen synthase (Ser641) antibody. p-S9-GSK3β indicates the phosphorylated Ser9 of GSK3β, and was detected by anti-phospho GSK3β (Ser9) antibody. Levels of transfected proteins were detected using monoclonal GFP antibody, indicated by GFP. Total cellular levels of GS and GSK3β were measured by anti-GS antibody and anti-GSK3β antibody, which are indicated by t-GS and t-GSK3β, respectively. […] (D) Activation of Wnt/β-catenin signaling, which was measured by the Top-flash luciferase activity. […] The luciferase activities were measured after 24 h of the transfection. […]
# A549 cells [2] = assay: Western blot of β-catenin in transfected A549 cells; assay type: cell-based; conditions: GFP fusion, 24 h
# From the text: as §1
# HepG2 cells [3] = assay: Western blot of β-catenin in transfected HepG2 cells; assay type: cell-based; conditions: GFP fusion, 24 h
# Description: (§2) pEGFP-miniCL and pEGFP-miniCLMT vectors were transfected into A549 cells and HepG2 cells using jetpei according to the manufacturer's protocol (Polyplus transfection). In brief, 2 µg of DNA and jetpei mixtures were added to A549 cells and HepG2 cell and incubated for 3 h under serum-free conditions, and then equal volumes of DMEM containing 20% serum were added. After 24 h incubation, cells were harvested using RIPA (containing protease cocktail). Subsequently, 20 µg of protein lysates were applied to SDS-PAGE. After transferring the proteins to a PVDF membrane, samples were incubated with the appropriate antibodies, according to standard western blot protocol.
# Supplementary file pone.0004046.s002.tif: Figure S2 Western blotting analysis from the transfected HepG2 cells. Labels at the left side of blots indicate the antibody used for detection of the corresponding protein. The endogenous β-catenin level was detected by an anti-β-catenin antibody. p-GS indicates the level of the phosphorylated GS by GSK3β, detected by anti-glycogen synthase (Ser641) antibody. p-S9-GSK3β indicates the phosphorylated Ser9 of GSK3β, and was detected by anti-phospho GSK3β (Ser9) antibody. Levels of transfected proteins were detected using monoclonal GFP antibody, indicated by GFP. Pan-Ras is shown as a loading control. (0.05 MB TIF) Click here for additional data file.
# HepG2 cells [4] = assay: β-Catenin immunofluorescence in transfected HepG2 cells; assay type: cell-based; conditions: GFP fusion
# Description: as §2
# Transfected cells were fixed with 100% methanol for 20 min at −20°C. After washing with PBS and subsequent blocking with blocking buffer (PBS+0.05% BSA), fixed cells were incubated with anti-β-catenin antibody for 2 h at room temperature. […] After washing with PBS, expression of β-catenin, GFP, and DAPI were analyzed using fluorescence microscopy.
# Supplementary file pone.0004046.s001.tif: Figure S1 Cytosolic overexpression of the LRP6 constructs in HepG2 cells. […] Control, miniCL and miniCLMT were detected through the green fluorescence from GFP. β-Catenin was detected using an anti-β-catenin antibody, and the nuclei were detected by DAPI staining. […]
# A549 cells [5] = assay: β-Catenin immunofluorescence in transfected A549 cells; assay type: cell-based; conditions: GFP fusion
# From the text: as §1
# glycogen synthase = assay: Western blot of phosphorylated glycogen synthase (Ser641) in transfected A549 cells; assay type: cell-based; conditions: GFP fusion, anti-glycogen synthase (Ser641)
# From the text: as §1
# Wnt/β-catenin signaling = assay: TOP-flash luciferase assay in 293 cells; assay type: cell-based; conditions: 24 h after transfection, 4 independent experiments, p<0.01 vs empty vector and vs miniCLMT
# From the text: as §1
# GSK3β [6] = molecular target: T1, GSK3β (Mus musculus, UniProt Q9WV60); assay: Far western binding of GSK3β to miniCL in presence of Axin GBD; conditions: phosphorylated GST-miniCL; GSK3β 0.1 µg/ml; GST-Axin GBD 0, 10 µM; three independent experiments
# T1 construct: The catalytic domains of mouse GSK3β (residues 27–393) and CK1ε (residues 1–319) were expressed and purified; made in house
# Description: Figure 4 Phosphorylation-dependent binding of the LRP6 intracellular region to GSK3β in the absence and presence of Axin. (A) GST (Lane 1), GST-fused miniCL (Lane 3; GST-miniCL), GST-fused miniCLMT (Lane 5; GST-miniCLMT), and their phosphorylated forms (Lanes 2, 4, 6; indicated by “phos”) were loaded onto an SDS-polyacrylamide gel, and then transferred to PVDF membrane (Left top). […] The phosphorylated protein bands show an upshifted mobility on the gel. The PVDF membrane was incubated with 1 µg/ml of GSK3β to allow GSK3β to bind to the proteins in the membrane. The bound GSK3β was visualized on the transferred proteins by western blotting using an anti-GSK3β antibody (Left bottom), and the GSK3β protein used to obtain the phosphorylated forms of each protein is indicated by GSK3β*. The band intensities of bound GSK3β were measured from the three independent experiments (Right). […] The phosphorylated GST-fused miniCL was transferred to PVDF membrane, and the membrane was incubated with GSK3β (0.1 µg/ml) and GST-fused Axin GBD domain protein (0, 10 µM). Error bars indicate the standard deviation from three independent experiments. […]
# GST-fusion proteins (GST-miniCL, GST-miniCLMT, GST-PPPSPxS, GST-PPPAPxS) were subjected to SDS-PAGE and transferred to a PVDF membrane. […] The binding of GSK3β was detected with rabbit anti-GSK3β antibody and secondary HRP-conjugated goat anti-rabbit IgG (Pierce).
# LRP6 miniCL = assay: Far western binding of Axin fragment to LRP6 miniCL with GSK3β; parameters: species or system human; conditions: GST-miniCL 15 µg on PVDF; GSK3β 2 µg/ml and/or His-Axin 12 µg/ml
# Description: Figure 4 Phosphorylation-dependent binding of the LRP6 intracellular region to GSK3β in the absence and presence of Axin. (A) GST (Lane 1), GST-fused miniCL (Lane 3; GST-miniCL), GST-fused miniCLMT (Lane 5; GST-miniCLMT), and their phosphorylated forms (Lanes 2, 4, 6; indicated by “phos”) were loaded onto an SDS-polyacrylamide gel, and then transferred to PVDF membrane (Left top). […] The phosphorylated protein bands show an upshifted mobility on the gel. The PVDF membrane was incubated with 1 µg/ml of GSK3β to allow GSK3β to bind to the proteins in the membrane. The bound GSK3β was visualized on the transferred proteins by western blotting using an anti-GSK3β antibody (Left bottom), and the GSK3β protein used to obtain the phosphorylated forms of each protein is indicated by GSK3β*. The band intensities of bound GSK3β were measured from the three independent experiments (Right). […] The phosphorylated GST-fused miniCL was transferred to PVDF membrane, and the membrane was incubated with GSK3β (0.1 µg/ml) and GST-fused Axin GBD domain protein (0, 10 µM). Error bars indicate the standard deviation from three independent experiments. (C) GSK3β mediates the binding of an Axin fragment to LRP6 miniCL region. […]
# T1 sequence (Q9WV60 27-393): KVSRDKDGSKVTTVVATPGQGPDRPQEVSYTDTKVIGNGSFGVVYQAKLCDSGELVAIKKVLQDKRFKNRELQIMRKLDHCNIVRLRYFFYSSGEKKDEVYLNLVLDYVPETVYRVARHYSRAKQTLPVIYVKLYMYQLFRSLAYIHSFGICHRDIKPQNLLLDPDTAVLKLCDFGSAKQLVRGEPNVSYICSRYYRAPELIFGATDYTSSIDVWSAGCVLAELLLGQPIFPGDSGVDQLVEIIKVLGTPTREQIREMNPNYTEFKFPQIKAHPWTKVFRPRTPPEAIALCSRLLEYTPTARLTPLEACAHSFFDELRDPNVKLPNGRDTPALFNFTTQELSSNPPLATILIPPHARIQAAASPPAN
molecule,measurement,setting,value
"miniCL: LRP6 miniCL (residues 1470–1510 of human LRP6), GFP fusion in cells (SSSSSSTKGTYFPAILNPPPSPATERSHYTMEFGYSSNSPS; not fully specified; also: GFP fusion in cells (GFP left off))",Phosphorylation of Ser9 in GSK3β,GSK3β [1],without the induction of phosphorylation of Ser9 in GSK3β
same,β-catenin level (western blot),A549 cells [2],increased level of β-catenin
same,β-catenin level (western blot),HepG2 cells [3],increased level of β-catenin
same,Total cellular β-catenin and nuclear translocation,HepG2 cells [4],dramatically increased the total amount of cellular β-catenin and promoted the translocation of β-catenin into the nucleus
same,Total cellular β-catenin and nuclear translocation,A549 cells [5],dramatically increased the total amount of cellular β-catenin and promoted the translocation of β-catenin into the nucleus
same,Phosphorylation of glycogen synthase (p-GS),glycogen synthase,suppressed phosphorylation of glycogen synthase
same,TOP-flash luciferase activity,Wnt/β-catenin signaling,significantly induced TOP-flash activity; also recorded: significantly activated Wnt/β-catenin signaling
same,Effect of Axin GBD on GSK3β binding to miniCL,GSK3β [6],does not affect the binding of GSK3β; also recorded: not affected by the presence of Axin
B1,Binding to LRP6 miniCL,LRP6 miniCL,bound to LRP6 miniCL only in the presence of GSK3β; also recorded: bound to the LRP6 miniCL fragment only when GSK3β was co-incubated
